Data from patent US20200222474A1, “COMPOSITIONS AND METHODS FOR INCREASING PHYTOCHEMICAL BIOAVAILABLITY AND BIOACTIVITY” (North Carolina State University, priority 2017, published 2020).

Assays:
L. acidophilus NCFM = test: Growth of L. acidophilus NCFM on plant glycosides as single carbon source (OD600); assay type: cell-based, Lactobacillus acidophilus; settings: SDM + 1% (w/v) carbohydrate (0.5% esculin), 37° C., 30 hours; corrected to medium without carbohydrate
Method: For initial growth and gene expression studies, L. acidophilus NCFM was propagated three times in semi-defined medium (SDM) supplemented with either 1% or 0,5% (w/v) of the plant glycoside or carbohydrate (Table 1). For the RNA-seq analysis, cells were harvested by centrifugation (3,220×10 min, 25° C.) in the mid-exponential phase (OD600=0.6-0.8) and stored at −80° C. for subsequent RNA isolation. For the mass spectrometry metabolite analyses, 200 μt samples were taken at 0, 3, 6, 9, 12, and 24 hours of growth; cells were removed by centrifugation; and supernatants were stored at −80° C. for further analysis.
(§1) Phenotypic growth assays were performed using 1% (v/v) overnight cultures of L. acidophilus strains (Table 2) and other Lactobacillus species (Table 3) grown on SDM supplemented with 1% (w/v) glucose to inoculate 200 μL of SDM supplemented with 1% (w/v) of the examined carbohydrate (0.5% in the case of esculin) in 96-well microplate wells (Corning Costar, Corning, N.Y., USA) in duplicate or triplicate wells, respectively. The microplates were sealed with clear adhesive film, incubated at 37° C. in a Fluostar Optima microplate reader (BMG Labtech, Cary, N.C., USA), and the cell optical density (OD600) was monitored for 30 hours.
The growth of L. acidophilus NCFM was evaluated on twelve chemically diverse, nutritionally relevant and/or therapeutically active PGs 1; Table 1). FIG. 1A provides the structures and common sources of plant glycoside substrates described herein. The compounds that support growth of Lactobacillus acidophilus are in green. RI: β-D-Glcp; R2: Gentiobioside (β-D-Glcp-(1,6)-D-Glcp); R3: Rutinoside (α-L-Rhaf-(1,6)-D-Glcp). The graph in FIG. 1B depicts plant glycoside utilization analyzed by mass spectrometry and the growth as the maximum OD600. Due to the low solubility of polydatin, OD600 cannot be used as a growth metric and utilization of this compound is confirmed by the production of lactate as well as a high utilization level based on the metabolite analysis.

[1] = test system: L. reuteri (ATCC 23272, DSM 20016); test: Phenotypic growth assay (OD600); assay type: cell-based; settings: SDM + 1% (w/v) carbohydrate (0.5% esculin), 37° C., 30 hours; corrected to medium without carbohydrate
Method: as §1

L. acidophilus LA-1 = test: Phenotypic growth assay (OD600); assay type: cell-based; settings: SDM + 1% (w/v) carbohydrate (0.5% esculin), 37° C., 30 hours; corrected to medium without carbohydrate
Method: as §1

L. johnsonii ATCC 33200 = test: Phenotypic growth assay (OD600); assay type: cell-based; settings: SDM + 1% (w/v) carbohydrate (0.5% esculin), 37° C., 30 hours; corrected to medium without carbohydrate
Method: as §1

L. animalis DSM 20602 = test: Phenotypic growth assay (OD600); assay type: cell-based; settings: SDM + 1% (w/v) carbohydrate (0.5% esculin), 37° C., 30 hours; corrected to medium without carbohydrate
Method: as §1

L. fermentum ATCC 14931 = test: Phenotypic growth assay (OD600); assay type: cell-based; settings: SDM + 1% (w/v) carbohydrate (0.5% esculin), 37° C., 30 hours; corrected to medium without carbohydrate
Method: as §1

[2] = test system: L. rhanmosus GG (ATCC 53103); test: Phenotypic growth assay (OD600); assay type: cell-based; settings: SDM + 1% (w/v) carbohydrate (0.5% esculin), 37° C., 30 hours; corrected to medium without carbohydrate
Method: as §1

[3] = test system: L. crispatus ATCC 33820, DSM 20584; test: Phenotypic growth assay (OD600); assay type: cell-based; settings: SDM + 1% (w/v) carbohydrate (0.5% esculin), 37° C., 30 hours; corrected to medium without carbohydrate
Method: as §1

L. helveticus CNRZ32 = test: Phenotypic growth assay (OD600); assay type: cell-based; settings: SDM + 1% (w/v) carbohydrate (0.5% esculin), 37° C., 30 hours; corrected to medium without carbohydrate
Method: as §1

[4] = test system: L. intestinalis Th4, ATCC 49335, DSM 6629; test: Phenotypic growth assay (OD600); assay type: cell-based; settings: SDM + 1% (w/v) carbohydrate (0.5% esculin), 37° C., 30 hours; corrected to medium without carbohydrate
Method: as §1

[5] = test system: L. plantarum sp. plantarum ATCC 14917, LA70; test: Phenotypic growth assay (OD600); assay type: cell-based; settings: SDM + 1% (w/v) carbohydrate (0.5% esculin), 37° C., 30 hours; corrected to medium without carbohydrate
Method: as §1

L. gasseri ATCC 33323 = test: Phenotypic growth assay (OD600); assay type: cell-based; settings: SDM + 1% (w/v) carbohydrate (0.5% esculin), 37° C., 30 hours; corrected to medium without carbohydrate
Method: as §1

[6] = test system: L. amyloverus ATCC 33620, DSM 20531; test: Phenotypic growth assay (OD600); assay type: cell-based; settings: SDM + 1% (w/v) carbohydrate (0.5% esculin), 37° C., 30 hours; corrected to medium without carbohydrate
Method: as §1

[7] = test system: L. jensenii ATCC 25258, 62G, DSM 20557; test: Phenotypic growth assay (OD600); assay type: cell-based; settings: SDM + 1% (w/v) carbohydrate (0.5% esculin), 37° C., 30 hours; corrected to medium without carbohydrate
Method: as §1

NCK2422 (ΔLBA0725) = test: Phenotypic growth analysis of deletion mutant (PTS EIICBA); assay type: cell-based, Lactobacillus acidophilus
Method: as §1
Construction of gene deletion mutants. The L. acidophilus NCFM genes LBA0225 and LBA0726, both encoding P-Bgl of glycoside hydrolase family 1 (GH1) enzymes in addition to the LBA0227 and LBA0725 genes encoding an EIIC and an EIICBA components of two PTS systems, respectively, were deleted using the upp-based counterselectable gene replacement system. Briefly, in-frame deletions were constructed by amplifying 650-750 bp of the up- and downstream flanking regions of the deletion targets with two primer pairs (e.g., LBA0225A/LBA0225B and LBA0225C/LBA0225D; Table 4). The resulting purified products were joined by splicing using overlap extension PCR (SOE-PCR63) and amplified to establish the deletion alleles. The SOE-PCR products, that include flanking restriction enzyme sites, were cloned within the BamHI and SacI/EcoRI sites of the pTRK935 integration vector and transformed into E. coli EC101. The resulting recombinant plasmids (pTRK1113-6) were confirmed by DNA sequencing and electroporated into L. acidophilus NCK1910 (Table 2) that contains the pTRK669 helper plasmid, and the recovery of the single- and double-crossover recombinants was performed as previously described. Recombinants carrying the new gene deletion alleles were isolated by colony PCR using primer pairs denoted up/down (e.g., LBA0225up/LBA0225down), which anneal to the flanking regions of the amplicons. Sequence integrity and in-frame deletions were verified by DNA sequencing employing the aforementioned primer pairs and primer denoted mid (e.g., LBA0225mid). The mutations were in-frame deletions of 90-96% of the coding regions.
To establish the functional significance of these two loci, single deletions of each PTS EII and P-Bgl gene, and a double deletion of both P-Bgl genes were constructed using the upp-based counter-selectable gene replacement system (Table 2) and the growth phenotypes of the mutant strains were analyzed (FIG. 3). Phenotypic growth analyses of deletion mutants of EII PTS transporters (FIGS. 3A, 3C, 3E, 3G, and 3I) and phospho-β-glucosidase (FIGS. 3B, 3D, 3F, 3H, and 3J) on the β-glucosides esculin, salicin, amygdalin and the disaccharides gentiobiose and cellobiose. The background Aupp strain is shown as a grey fill graph and the growth of the mutant strains is shown as: PTS EIIC (LBA0227, pink triangle), the phospho-β-glucosidase (LBA0225, light blue triangles), the PTS EIICBA (LBA0725, yellow squares), the second phospho-β-glucosidase (LBA0726, lilac squares) and the double phospho-β-glucosidase mutant (LBA0225/LBA0726, black stars). The color scheme is consistent with that used for the gene loci in FIG. 2.

NCK2424 (ΔLBA0726) = test: Phenotypic growth analysis of deletion mutant (phospho-β-glucosidase); assay type: cell-based, Lactobacillus acidophilus; settings: compared with background Δupp strain
Method: as §1
Construction of gene deletion mutants. The L. acidophilus NCFM genes LBA0225 and LBA0726, both encoding P-Bgl of glycoside hydrolase family 1 (GH1) enzymes in addition to the LBA0227 and LBA0725 genes encoding an EIIC and an EIICBA components of two PTS systems, respectively, were deleted using the upp-based counterselectable gene replacement system. Briefly, in-frame deletions were constructed by amplifying 650-750 bp of the up- and downstream flanking regions of the deletion targets with two primer pairs (e.g., LBA0225A/LBA0225B and LBA0225C/LBA0225D; Table 4). The resulting purified products were joined by splicing using overlap extension PCR (SOE-PCR63) and amplified to establish the deletion alleles. The SOE-PCR products, that include flanking restriction enzyme sites, were cloned within the BamHI and SacI/EcoRI sites of the pTRK935 integration vector and transformed into E. coli EC101. […]
To establish the functional significance of these two loci, single deletions of each PTS EII and P-Bgl gene, and a double deletion of both P-Bgl genes were constructed using the upp-based counter-selectable gene replacement system (Table 2) and the growth phenotypes of the mutant strains were analyzed (FIG. 3). […]

O=C[C@H](O)[C@@H](O)[C@H](O[C@@H]1O[C@H](CO)[C@@H](O)[C@H](O)[C@H]1O)[C@H](O)CO [Cellobiose, reference compound]
Growth (OD600 max class) of L. acidophilus NCFM (L. acidophilus NCFM): ++ (“++” signifies 0.6 > OD600 max > 0.3.) | Growth (OD600 max class) of L. reuteri (ATCC 23272, DSM 20016) [1]: − (“−” signifies OD600 max < 0.1.) | Growth (OD600 max class) of L. acidophilus LA-1 (L. acidophilus LA-1): +++ (“+++” signifies OD600 max > 0.6.) | Growth (OD600 max class) of L. johnsonii ATCC 33200 (L. johnsonii ATCC 33200): + (“+” signifies 0.3 > OD600 max > 0.1.) | Growth (OD600 max class) of L. animalis DSM 20602 (L. animalis DSM 20602): + (“+” signifies 0.3 > OD600 max > 0.1.) | Growth (OD600 max class) of L. fermentum ATCC 14931 (L. fermentum ATCC 14931): − (“−” signifies OD600 max < 0.1.) | Growth (OD600 max class) of L. rhanmosus GG (ATCC 53103) [2]: +++ (“+++” signifies OD600 max > 0.6.) | Growth (OD600 max class) of L. crispatus ATCC 33820, DSM 20584 [3]: − (“−” signifies OD600 max < 0.1.) | Growth (OD600 max class) of L. helveticus CNRZ32 (L. helveticus CNRZ32): + (“+” signifies 0.3 > OD600 max > 0.1.) | Growth (OD600 max class) of L. intestinalis Th4, ATCC 49335, DSM 6629 [4]: − (“−” signifies OD600 max < 0.1.) | Growth (OD600 max class) of L. plantarum sp. plantarum ATCC 14917, LA70 [5]: +++ (“+++” signifies OD600 max > 0.6.) | Growth (OD600 max class) of L. gasseri ATCC 33323 (L. gasseri ATCC 33323): ++ (“++” signifies 0.6 > OD600 max > 0.3.) | Growth (OD600 max class) of L. amyloverus ATCC 33620, DSM 20531 [6]: +++ (“+++” signifies OD600 max > 0.6.) | Growth (OD600 max class) of L. jensenii ATCC 25258, 62G, DSM 20557 [7]: ++ (“++” signifies 0.6 > OD600 max > 0.3.) | reduction of growth on inactivation of the EIICBA (LBA0725) (NCK2422 (ΔLBA0725)): about 50% | growth of the ΔLBA0725 mutant (inactive PTS EIICBA) (NCK2422 (ΔLBA0725); compared with background Δupp strain): moderately reduced | growth of the ΔLBA0726 mutant (P-Bgl) (NCK2424 (ΔLBA0726)): unaffected
